Results published in patent US20080241904A1, “PROCESS FOR PRODUCING ISOMALTOSE AND USES THEREOF” (KABUSHIKI KAISHA HAYASHIBARA SEIBUTSU KAGAKU KENKYUJO, priority 2001, published 2008).

Legend:
[1] = system: α-isomaltosylglucosaccharide-forming enzyme from Bacillus globisporus C9; assay: Action of α-isomaltosylglucosaccharide-forming enzyme on saccharides as substrates (TLC), enzyme of Strain C9; assay type: biochemical; set-up: key: −: it showed no change; +: it showed a slight reduction of the color of substrate spot and the formation of other reaction product; ++: it showed a high reduction of the color of substrate spot and the formation of other reaction product; +++: it showed a substantial disappearance of the color of substrate spot and the formation of other reaction product; details: two units/g substrate, substrate 2% (w/v), 30° C., pH 6.0, 24 hours
Experimental: (§1) The action of α-isomaltosylglucosaccharide-forming enzyme on saccharides as substrates was tested. First, a solution of maltose, maltotriose, maltotetraose, maltopentaose, maltohexaose, maltoheptaose, isomaltose, isomaltotriose, panose, isopanose, α,α-trehalose (may be abbreviated as “trehalose” hereinafter), kojibiose, nigerose, neotrehalose, cellobiose, gentibiose, maltitol, maltotriitol, lactose, sucrose, erlose, selaginose, maltosyl glucoside, or isomaltosyl glucoside was prepared. To each of the above solutions was added two units/g substrate of the purified specimen of α-isomaltosylglucosaccharide-forming enzyme from Bacillus globisporus C9 in Experiment 2-1 or Bacillus globisporus C11 in Experiment 4-1, and each resulting solution was adjusted to give a substrate concentration of 2% (w/v) and incubated at 30° C. and pH 6.0 for 24 hours. The solutions before and after the enzymatic reactions were respectively subjected to thin-layer chromatography (abbreviated as “TLC” hereinafter). TLC was carried out in such a manner of separating saccharides by developing the solutions twice each using, as a developer, a mixture solution of n-butanol, pyridine, and water (=6:4:1), and, as a thin-layer plate, “[…] 60”, an aluminum plate (20×20 cm) for TLC commercialized by Merck & Co., Inc., Rahway, USA.; detecting the total saccharides in each mixture solution by spraying a mixture of sulfuric acid and methanol onto the aluminum plates to develop color of the total saccharides and detecting non-reducing saccharides in each mixture solution by the diphenylamine-aniline method.

[2] = system: α-isomaltosylglucosaccharide-forming enzyme from Bacillus globisporus C11; assay: Action of α-isomaltosylglucosaccharide-forming enzyme on saccharides as substrates (TLC), enzyme of Strain C11; assay type: biochemical; set-up: key: −: it showed no change; +: it showed a slight reduction of the color of substrate spot and the formation of other reaction product; ++: it showed a high reduction of the color of substrate spot and the formation of other reaction product; +++: it showed a substantial disappearance of the color of substrate spot and the formation of other reaction product; details: two units/g substrate, substrate 2% (w/v), 30° C., pH 6.0, 24 hours
Experimental: as §1

Row | Compound | Enzymatic action, Enzyme of Strain C9 [1] | Enzymatic action, Enzyme of Strain C11 [2]
1 | OC[C@@H](O)[C@@H](O[C@H]1O[C@H](CO)[C@@H](O[C@H]2O[C@H](CO)[C@@H](O)[C@H](O)[C@H]2O)[C@H](O)[C@H]1O)[C@H](O)[C@@H](O)CO [Maltotriitol, maltotriitol] | + | +
2 | OC[C@H]1O[C@H](O[C@H]2[C@H](O)[C@@H](O)[C@@H](O[C@H]3[C@H](O)[C@@H](O)[C@@H](O[C@H]4[C@H](O)[C@@H](O)C(O)O[C@@H]4CO)O[C@@H]3CO)O[C@@H]2CO)[C@H](O)[C@@H](O)[C@@H]1O (some centres unmarked) [Maltotetraose, maltotetraose] | +++ | +++
3 | maltoheptaose | +++ | +++
4 | OC[C@H]1O[C@H](O[C@H]2O[C@H](CO)[C@@H](O[C@H]3O[C@H](CO)[C@@H](O)[C@H](O)[C@H]3O)[C@H](O)[C@H]2O)[C@H](O)[C@@H](O)[C@@H]1O [Maltosylglucoside, maltosyl glucoside] | ++ | ++
5 | maltopentaose | +++ | +++
6 | OC[C@H]1O[C@@H](O[C@H]2O[C@H](CO)[C@@H](O)[C@H](O)[C@H]2O)[C@H](O)[C@@H](O)[C@@H]1O [Neotrehalose, neotrehalose] | + | +
7 | OC[C@H]1O[C@H](O[C@H]2[C@H](O)[C@@H](O)[C@H](O)O[C@@H]2CO)[C@H](O)[C@@H](O)[C@@H]1O [Maltose, maltose] | + | +
8 | OC[C@H]1O[C@H](O[C@H]2C(O)O[C@H](CO)[C@@H](O)[C@@H]2O)[C@H](O)[C@@H](O)[C@@H]1O (some centres unmarked) [Kojibiose, kojibiose] | + | +
9 | maltotriose | ++ | ++
10 | OC[C@H]1O[C@H](O[C@H]2[C@H](O)[C@@H](O)[C@@H](OC[C@H]3OC(O)[C@H](O)[C@@H](O)[C@@H]3O)O[C@@H]2CO)[C@H](O)[C@@H](O)[C@@H]1O (some centres unmarked) [Isopanose, isopanose] | ++ | ++
11 | OC[C@H]1O[C@@](CO)(O[C@H]2O[C@H](CO)[C@@H](O[C@H]3O[C@H](CO)[C@@H](O)[C@H](O)[C@H]3O)[C@H](O)[C@H]2O)[C@@H](O)[C@@H]1O [Erlose, erlose] | + | +
12 | OC[C@H]1O[C@H](O[C@H]2[C@H](O)[C@@H](CO)OC(O)[C@@H]2O)[C@H](O)[C@@H](O)[C@@H]1O (some centres unmarked) [Nigerose, nigerose] | + | +
13 | maltohexaose | +++ | +++
14 | OC[C@H]1O[C@H](OC[C@H]2O[C@H](O[C@H]3[C@H](O)[C@@H](O)C(O)O[C@@H]3CO)[C@H](O)[C@@H](O)[C@@H]2O)[C@H](O)[C@@H](O)[C@@H]1O (some centres unmarked) [Panose, panose] | − | −
15 | isomaltosyl glucoside [Isomaltosylglucoside] | − | −
16 | OC[C@H]1O[C@H](O[C@H]2O[C@H](CO)[C@@H](O)[C@H](O)[C@H]2O[C@H]2O[C@H](CO)[C@@H](O)[C@H](O)[C@H]2O)[C@H](O)[C@@H](O)[C@@H]1O [Selaginose, selaginose] | − | −
